Reference: EPA's aquatic toxicity sets

How the values were obtained:
[1] = tested on: Pimephales promelas; assay: 96 h LC50 (-log10 mol/L); higher = more toxic
[2] = tested on: Tetrahymena pyriformis; assay: 48 h IGC50 (-log10 mol/L); higher = more toxic

Structure (SMILES)	96 h LC50 (-log10 mol/L) [1]	48 h IGC50 (-log10 mol/L) [2]
OCC(Cl)(Cl)Cl	2.82	2.54
O=C(c1ccccc1)c1ccncc1	3.25	2.91
N#Cc1cc(Cl)ccc1N	3.73	3.44
Cc1cccc(Cl)n1	2.74	2.52
CC(=O)c1ccc(Cl)cc1Cl	4.21	3.62
O=Cc1cccc([N+](=O)[O-])c1	4.42	3.11
O=C(O)CCCCC(=O)O	3.18	2.39
Oc1cccnc1Cl	2.32	2.99
O=Cc1cc(Br)ccc1O	5.19	4.11
O=C1CCCCC1	2.19	1.77
CC(C)c1cccc(C(C)C)c1N	4.1	3.76
N#CCC#N	5.07	3.22
COC(=O)c1ccc(Cl)cc1[N+](=O)[O-]	3.9	3.82
C=Cn1c2ccccc2c2ccccc21	7.81	5.24
COc1cc(OC)c(OC)cc1C=O	3.6	2.9
Cc1ccc(C)c(C)c1	4.19	3.78
Cc1cccc(O)c1	3.29	2.92
O/N=C/c1ccccc1O	4.63	3.25
c1cc(CCc2ccncc2)ccn1	3.09	2.97
CC1(C)OCC(CO)O1 (centres undefined)	0.898	1.21
C=COC(C)=O	3.57	2.14
Nc1ccc(Br)cc1	3.56	4.01

Structure (SMILES)	96 h LC50 (-log10 mol/L) [1]	48 h IGC50 (-log10 mol/L) [2]
N#CC(Br)Br	5.56	5.4
O=Cc1cccnc1	3.81	2.87
CCC#N	1.56	1.03
C=CCN=C=S	6.06	5.06
O=[N+]([O-])c1c(Cl)cc(Cl)c([N+](=O)[O-])c1Cl	6.09	5.19
CCCCCCCCO	3.98	3.58
Nc1ccc(Cl)c(Cl)c1	4.32	4.37
COC(C)=O	2.27	1.41
CC(C)C(O)C(C)C	2.85	2.29
CCCCCCCCCCCC(C)=O	5.74	5.12
O=[N+]([O-])c1cccc2ccccc12	4.53	4
ClC(Cl)(Cl)Cl	3.57	2.98
c1ccc(-c2ccncc2)cc1	3.98	3.66
Cc1c[nH]c2ccccc12	4.17	3.37
CC(=O)CC(C)C	2.27	1.79
CCCCCCCCCC(C)=O	5.05	4.54
CCC(C)(C)c1ccc(O)cc1	4.8	4.23
CCCCCCCC(C)=O	3.97	3.66
Nc1ccc(F)cc1C(F)(F)F	3.78	2.98
Oc1cccc(O)c1	3.3	2.35
c1ccc2ncccc2c1	3.45	3.09
CCCCCCBr	4.68	3.94

Structure (SMILES)	96 h LC50 (-log10 mol/L) [1]	48 h IGC50 (-log10 mol/L) [2]
O=c1cc(-c2ccccc2)oc2ccccc12	4.8	4.41
Oc1ccc(Oc2ccccc2)cc1	4.58	4.36
O=Cc1cc(Br)cc(Br)c1O	5.52	4.65
Nc1cc([N+](=O)[O-])cc([N+](=O)[O-])c1	3.93	3.94
COc1ccc(C(C)=O)c(O)c1	3.38	3.55
CCOC(=O)CCCCC(=O)OCC	4.05	2.87
OCCCCl	2.07	1.6
CC(=O)Nc1cccc(O)c1	2.13	2.84
CC(=O)C(C)C	2	1.83
CO	0.056	0.334
O=[N+]([O-])c1cc([N+](=O)[O-])c(Cl)cc1Cl	6.78	5.72
C/C=C/C=O	4.92	4.06
CCCCCCCCC(C)=O	4.51	3.58
CCCCOC(=O)CCC	4.09	3.52
Cc1ccncc1	2.36	2.12
CN(C)c1ccccn1	2.98	2.45
CC(C)(C)c1cc(C(C)(C)C)c(O)c(C(C)(C)C)c1	6.63	3.36
CC(=O)c1ccc(Cl)c(Cl)c1Cl	5.05	4.34
CCN(CC)c1ccccc1	3.96	3.66
COCCN	2.16	1.21
Cc1cc([N+](=O)[O-])ccc1N	3.24	3.49
CCOC(=O)CC(=O)OCC	4.02	2

Structure (SMILES)	96 h LC50 (-log10 mol/L) [1]	48 h IGC50 (-log10 mol/L) [2]
CN1CCNCC1	1.64	2.04
O=Cc1ccc(Cl)cc1	4.8	3.4
CCCCCCC1CCC(=O)O1 (centres undefined)	3.98	3.49
N#Cc1ccc([N+](=O)[O-])cc1	3.78	3.57
CCCCCCCCN	4.4	3.35
Nc1ccccc1	2.99	2.77
O=[N+]([O-])c1ncccc1O	2.92	3.87
C=CCc1ccccc1O	3.98	3.33
N#CCCl	4.75	3.85
C=CC(=O)OCCO	4.38	3.69
C=CCOC(=O)C(=C)C	5.11	2.32
CCCCCc1ccccc1	4.94	4.79
CC(O)CO (centres undefined)	0.349	0.49
C=CC(=O)OCC(C)O (centres undefined)	4.59	3.65
Cc1cc(Cl)nc(N)n1	3.01	2.53
C=C(C)C(=O)OCCO	2.76	1.92
C#CCO	4.56	1.93
CC(=O)C(C)(C)C	3.06	1.56
Oc1ccccc1O	4.29	3.75
O=Cc1ccc([N+](=O)[O-])cc1	4.17	3.2
O=Cc1c(F)c(F)c(F)c(F)c1F	5.25	3.82
Oc1c(Br)cc(Br)cc1Br	4.71	4.91

Structure (SMILES)	96 h LC50 (-log10 mol/L) [1]	48 h IGC50 (-log10 mol/L) [2]
O=[N+]([O-])c1ccc(Oc2ccccc2)cc1	4.91	4.58
C=CCCl	3.55	2.06
COC(=O)c1ccc([N+](=O)[O-])cc1	3.88	3.39
O=[N+]([O-])c1cccc(Cl)c1	3.93	3.73
CN(C)c1ccc(/C=C/C=O)cc1	4.47	3.52
Oc1cccnc1Br	2.57	3.15
Clc1nc(Cl)c(Cl)c(Cl)c1Cl	5.73	4.71
C=CC(N)=O	2.79	2.19
Clc1cc(Cl)c(Cl)cc1Cl	5.83	5
CCC(C)N (centres undefined)	2.42	2.33
CC=NO	2.89	1.39
Cc1ccc([N+](=O)[O-])c(O)c1	3.51	3.59
NC(=O)c1ccc(Cl)cc1Cl	3.3	2.64
CC(=O)c1ccncc1	2.86	2.13
NC(=O)c1ccccc1O	3.13	2.76
c1ccc2cnncc2c1	3.11	2.66
CC(C)COC(=O)c1ccccc1C(=O)OCC(C)C	5.49	4.44
CCCCC(CC)CO (centres undefined)	3.66	3.17
CCCC(C)=O	1.84	1.78
